Results reported in the NIST ThermoML archive (doi:10.1021/je900164a).

Assay: xn = mol fraction of the nth substance listed
Details: 101 kPa, Liquid, Vibrating tube method

CNC(=O)NC [1,3-dimethylurea] + O
mass density [kg/m3]
Details	274.15 K	275.15 K	276.15 K	277.15 K	278.15 K	279.18 K	280.15 K
x1 = 0.000898	1000.36	1000.39	1000.4	1000.41	1000.41	1000.38	1000.35
x1 = 0.0018	1000.83	1000.85	1000.86	1000.87	1000.86	1000.83	1000.78
x1 = 0.00448	1002.26	1002.25	1002.26	1002.27	1002.23	1002.19	1002.14
x1 = 0.00893	1004.68	1004.65	1004.64	1004.63	1004.56	1004.5	1004.44
x1 = 0.01771	1009.58	1009.48	1009.4	1009.35	1009.26	1009.16	1009.05
x1 = 0.02461	1013.5	1013.35	1013.24	1013.14	1013.05	1012.89	1012.74
x1 = 0.03141	1017.27	1017.12	1016.94	1016.8	1016.7	1016.44	1016.24
x1 = 0.03815	1021.02	1020.73	1020.54	1020.37	1020.22	1019.9	1019.66
x1 = 0.04471	1024.43	1024.13	1023.92	1023.74	1023.58	1023.29	–
x1 = 0.05126	1027.8	1027.45	1027.2	1027.03	1026.87	1026.57	–
x1 = 0.06722	1035.64	1035.23	1034.87	1034.56	1034.3	1033.9	–
x1 = 0.08246	1042.41	1042.02	1041.67	1041.26	1040.88	1040.45	–
x1 = 0.09755	–	–	–	–	1046.81	1046.32	–
